ChEMBL document CHEMBL2146478, “Discovery of potent inhibitors of receptor protein tyrosine phosphatase sigma through the structure-based virtual screening” (Bioorg Med Chem Lett, 2012)

Legend:
[1] = target: T1, Dual specificity protein phosphatase 4 (Homo sapiens, UniProt Q13115); experiment: Inhibition of MKP2
T1 sequence (Q13115 whole entry): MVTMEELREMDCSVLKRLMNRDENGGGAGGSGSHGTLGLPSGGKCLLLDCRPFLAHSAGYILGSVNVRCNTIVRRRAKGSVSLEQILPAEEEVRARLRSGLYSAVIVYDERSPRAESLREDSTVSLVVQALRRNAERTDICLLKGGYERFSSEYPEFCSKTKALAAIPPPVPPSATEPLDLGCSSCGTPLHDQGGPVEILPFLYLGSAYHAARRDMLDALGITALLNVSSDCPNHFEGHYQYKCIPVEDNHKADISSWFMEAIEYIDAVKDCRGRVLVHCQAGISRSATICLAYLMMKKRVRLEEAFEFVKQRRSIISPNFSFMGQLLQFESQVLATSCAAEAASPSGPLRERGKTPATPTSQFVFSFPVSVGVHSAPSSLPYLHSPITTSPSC

PTPsigma-(Brain) [2] = target: T2, PTPsigma-(Brain) (Homo sapiens, UniProt Q9UM81); experiment: Inhibition of His-tagged PTPsigma catalytic domain amino acid 1369 to 1948 using DiFMUP as substrate after 20 mins by spectrofluorometric analysis
Target sequence in this assay (Q9UM81 whole entry, the tested form may be a part): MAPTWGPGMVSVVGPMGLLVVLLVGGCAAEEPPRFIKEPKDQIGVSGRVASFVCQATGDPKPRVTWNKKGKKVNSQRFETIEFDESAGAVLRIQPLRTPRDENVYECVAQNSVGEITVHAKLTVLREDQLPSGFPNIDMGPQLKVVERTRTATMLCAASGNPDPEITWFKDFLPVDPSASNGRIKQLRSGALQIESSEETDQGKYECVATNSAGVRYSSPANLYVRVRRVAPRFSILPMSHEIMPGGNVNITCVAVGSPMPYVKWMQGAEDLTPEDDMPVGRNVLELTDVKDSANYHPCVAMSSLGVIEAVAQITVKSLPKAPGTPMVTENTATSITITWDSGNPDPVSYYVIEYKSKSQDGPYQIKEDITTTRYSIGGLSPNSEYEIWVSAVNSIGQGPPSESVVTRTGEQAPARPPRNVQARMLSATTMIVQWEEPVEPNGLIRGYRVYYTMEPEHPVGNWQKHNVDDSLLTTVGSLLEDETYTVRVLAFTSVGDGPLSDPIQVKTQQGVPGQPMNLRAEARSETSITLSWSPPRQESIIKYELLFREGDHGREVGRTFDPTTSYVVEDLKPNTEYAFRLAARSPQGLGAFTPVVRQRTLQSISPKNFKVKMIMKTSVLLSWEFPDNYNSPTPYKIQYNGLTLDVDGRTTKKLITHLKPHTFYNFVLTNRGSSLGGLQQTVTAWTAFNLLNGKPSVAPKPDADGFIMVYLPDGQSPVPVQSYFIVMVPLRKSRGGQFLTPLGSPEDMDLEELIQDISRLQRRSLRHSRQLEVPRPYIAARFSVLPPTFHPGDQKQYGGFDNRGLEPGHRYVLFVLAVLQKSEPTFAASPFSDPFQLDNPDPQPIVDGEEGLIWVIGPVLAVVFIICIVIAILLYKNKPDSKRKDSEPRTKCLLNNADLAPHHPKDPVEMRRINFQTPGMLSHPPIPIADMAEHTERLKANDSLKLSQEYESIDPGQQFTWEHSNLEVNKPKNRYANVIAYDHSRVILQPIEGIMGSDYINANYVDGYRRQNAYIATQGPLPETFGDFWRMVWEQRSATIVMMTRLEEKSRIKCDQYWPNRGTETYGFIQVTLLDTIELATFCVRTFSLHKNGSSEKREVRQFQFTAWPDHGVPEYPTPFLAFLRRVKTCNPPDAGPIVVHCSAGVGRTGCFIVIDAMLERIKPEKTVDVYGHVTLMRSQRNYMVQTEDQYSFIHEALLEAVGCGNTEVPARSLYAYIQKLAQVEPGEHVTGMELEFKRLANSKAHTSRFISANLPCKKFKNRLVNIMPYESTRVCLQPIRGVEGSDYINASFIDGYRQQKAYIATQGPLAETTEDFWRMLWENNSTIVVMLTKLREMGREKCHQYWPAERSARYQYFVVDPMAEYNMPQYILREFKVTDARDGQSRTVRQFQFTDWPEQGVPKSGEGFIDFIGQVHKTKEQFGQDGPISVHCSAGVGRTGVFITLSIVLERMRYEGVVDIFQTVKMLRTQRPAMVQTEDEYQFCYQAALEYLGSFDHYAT

PTPsigma-(Brain) [3] = target: T2, PTPsigma-(Brain); experiment: Inhibition of His-tagged PTPsigma catalytic domain amino acid 1369 to 1948 using DiFMUP as substrate at 2 uM after 20 mins by spectrofluorometric analysis
Target sequence in this assay (Q9UM81 as listed by the source): as the sequence (Q9UM81 whole entry, the tested form may be a part) above

[4] = target: Protein tyrosine phosphatase type IVA 3 (Homo sapiens, UniProt O75365); experiment: Inhibition of PRL3
Sequence of Protein tyrosine phosphatase type IVA 3 (O75365 whole entry): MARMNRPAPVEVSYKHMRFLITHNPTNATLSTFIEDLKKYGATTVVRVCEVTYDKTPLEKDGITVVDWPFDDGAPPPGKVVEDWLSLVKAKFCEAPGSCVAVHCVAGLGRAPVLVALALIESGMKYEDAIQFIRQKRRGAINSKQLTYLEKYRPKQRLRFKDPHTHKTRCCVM

[5] = target: T3, Protein tyrosine phosphatase type IVA 1 (Homo sapiens, UniProt Q93096); experiment: Inhibition of PRL1
T3 sequence (Q93096 whole entry): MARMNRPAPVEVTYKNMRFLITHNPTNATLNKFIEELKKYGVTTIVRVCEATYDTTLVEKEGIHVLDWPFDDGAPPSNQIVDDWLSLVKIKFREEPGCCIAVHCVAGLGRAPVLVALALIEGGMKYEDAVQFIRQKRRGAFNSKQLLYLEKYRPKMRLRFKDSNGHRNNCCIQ

Row | Compound | IC50 [1] | IC50 (PTPsigma-(Brain) [2]) | inhibition (PTPsigma-(Brain) [3]) | IC50 [4] | IC50 [5]
1 | CC1=CC2=NC(=O)/C(=C/c3ccc(O)c(O)c3)C(=N)N2O1 | 55.4 µM | 700 nM | > 50% | > 100 µM | > 100 µM
2 | O=C1NC(=S)S/C1=C\c1cn(-c2ccccc2)nc1-c1cccc(OCc2ccccc2Cl)c1 | 21 µM | 600 nM | > 50% | 27.6 µM | 37.2 µM
3 | N=C1/C(=C\c2ccc(O)c(O)c2)C(=O)N=C2SC(c3ccc(O)cc3)=NN12 | > 100 µM | 1200 nM | > 50% | 33.2 µM | 39.8 µM
4 | O=C1NC(=O)/C(=C\c2cccn2-c2ccc(C(=O)O)cc2)N1 | > 100 µM | 200 nM | > 50% | > 100 µM | > 100 µM

Second part, the compound after the results:

Row | IC50 [1] | IC50 (PTPsigma-(Brain) [2]) | inhibition (PTPsigma-(Brain) [3]) | IC50 [4] | IC50 [5] | Compound
5 | 2.29 µM | 100 nM | > 50% | > 100 µM | 21 µM | c1ccc2nc(-c3nnc4sc(-c5cnccn5)nn34)ccc2c1
6 | > 100 µM | 1300 nM | > 50% | 57 µM | > 100 µM | O=C(CSc1nnc(-c2ccco2)c(-c2ccco2)n1)Nc1ccccc1[N+](=O)[O-]
7 | > 100 µM | 900 nM | > 50% | 11 µM | 14 µM | O=c1/c(=C/c2ccc(O)c(O)c2)sc2nc3ccccc3n12
